Four compounds from publication PMC6099841, “New Chromane-Based Derivatives as Inhibitors of Mycobacterium tuberculosis Salicylate Synthase (MbtI): Preliminary Biological Evaluation and Molecular Modeling Studies” (Molecules : A Journal of Synthetic Chemistry and Natural …, 2018) can be followed below.

Experiment in all cases: biochemical
Assay [1] concerns the target T1, salicylate synthase MbtI (Mycobacterium tuberculosis, UniProt P9WFX1).
The target of assay [2] is T1, salicylate synthase MbtI. The source holds these as a separate data set.
Assay [3] addresses T1, salicylate synthase MbtI. As to conditions: read-out: MbtI Residual Activity at 100 μM.

Like-named read-outs stand apart in the source and are kept apart here.

T1 sequence (P9WFX1 whole entry): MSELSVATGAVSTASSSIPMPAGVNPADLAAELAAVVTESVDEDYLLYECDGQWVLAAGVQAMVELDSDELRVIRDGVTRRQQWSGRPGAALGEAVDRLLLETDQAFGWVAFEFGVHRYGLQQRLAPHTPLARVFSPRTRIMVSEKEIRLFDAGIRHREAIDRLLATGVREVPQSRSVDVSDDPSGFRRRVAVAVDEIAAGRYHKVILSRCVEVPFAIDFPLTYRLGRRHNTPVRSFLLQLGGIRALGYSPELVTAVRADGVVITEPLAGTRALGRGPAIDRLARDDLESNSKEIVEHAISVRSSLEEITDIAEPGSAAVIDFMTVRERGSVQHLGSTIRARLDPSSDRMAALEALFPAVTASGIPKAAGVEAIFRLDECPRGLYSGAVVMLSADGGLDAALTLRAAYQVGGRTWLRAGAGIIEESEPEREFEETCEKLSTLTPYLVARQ

By IC50 is commonly meant the concentration at which inhibition is half-maximal. `CC=C(Oc1cccc(C(=O)O)c1O)C(=O)O` [I, (1-carboxyprop-1-enyloxy)-2-hydroxybenzoic acid] came in with an IC50 against salicylate synthase MbtI [1] of 11.6 ± 2.4 µM.
`CC1CC(=O)c2c(cc(O)cc2C(=O)O)O1` (stereo not shown) [compound 1, 7-Hydroxy-2-methyl-4-oxo-3,4-dihydro-2H-benzopyran-5-carboxylic acid]: the IC50 at salicylate synthase MbtI [2] (read-out: IC50) is 55.8 ± 4.2 µM.
As for `CC1CCc2c(cc(O)cc2C(=O)O)O1` (stereo not shown) [compound 5, 7-Hydroxy-2-methylchroman-5-carboxylic acid], on salicylate synthase MbtI [3], the remaining activity at 100 µM amounted to 50.1 ± 7.1%.
Regarding `O=C(O)c1cc(O)cc2c1C(=O)CCO2` [compound 2, 7-Hydroxy-4-oxo-3,4-dihydro-2H-benzopyran-5-carboxylic acid], the IC50 on salicylate synthase MbtI [2] (read-out: MbtI IC50) came to 61.3 ± 5.3 µM.
